Common to all, as to assay: Protein kinase inhibition assay
Common to all, as to format: biochemical

One experiment addresses Axl(h) (Homo sapiens, UniProt P30530). To be noted: read-out: percent residual activity of Axl(h). As to the method: (§1) Certain compounds were tested for activity in protein kinase inhibition assays. All substrates were dissolved and diluted to working stocks in de-ionized water, apart from histone H1 (10× working stock in 20 mM MOPS pH 7.0), PDKtide (10× working stock in 50 mM Tris pH 7.0) ATF2 (which is typically stored at a 20× working stock in 50 mM Tris pH 7.5, 150 mM NaCl, 0.1 mM EGTA, 0.03% Brij-35, 50% glycerol, 1 mM benzamidine, 0.2 mM PMSF and 0.1% R-mercaptoethanol), KKLNRTLSFAEPG (SEQ ID NO:203) and RRRLSFAEPG (SEQ ID NO:204) (50 mM HEPES pH 7.4) and GGEEEEYFELVKKKK (SEQ ID NO:205) (20 mM MOPS pH 7.0). All kinases were pre-diluted to a 10× working concentration prior to addition into the assay. The composition of the dilution buffer for each kinase is detailed below.
(§2) In a final reaction volume of 25 μl, Axl (h) (5-10 mU) is incubated with 8 mM MOPS pH 7.0, 0.2 mM EDTA, 250 μM KKSRGDYMTMQIG (SEQ ID NO:210), 10 mM MgAcetate and [y-33P-ATP] (specific activity approx. 500 cpm/pmol, concentration as required). The reaction is initiated by the addition of the MgATP mix. After incubation for 40 minutes at room temperature, the reaction is stopped by the addition of 5 μl of a 3% phosphoric acid solution. 10 μl of the reaction is then spotted onto a P30 filtermat and washed three times for 5 minutes in 75 mM phosphoric acid and once in methanol prior to drying and scintillation counting.

The target of the next experiment is FGFR4(h) (Homo sapiens, UniProt P22455). Particulars: read-out: percent residual activity of FGFR4(h). As to the method:
as §1
as §2, with “FGFR4” for “Axl”, “10 mM MnCl2, 0.1 mg/ml poly(Glu, Tyr) 4:1,” for “250 μM KKSRGDYMTMQIG (SEQ ID NO:210),”, “[gamma-33P-ATP]” for “[y-33P-ATP]”, “Filtermat A” for “P30 filtermat”

In another experiment the target is Fyn(h) (Homo sapiens, UniProt P06241). To be noted: read-out: percent residual activity of Fyn(h). As to the method: as §1
In a final reaction volume of 25 μl, Fyn (h) (5-10 mU) is incubated with 50 mM Tris pH 7.5, 0.1 mM EGTA, 0.1 mM Na3VO4, 250 μM KVEKIGEGTYGVVYK (SEQ ID NO:220) (Cdc2 peptide), 10 mM MgAcetate and [gamma-33P-ATP] (specific activity approx. 500 cpm/pmol, concentration as required). The reaction is initiated by the addition of the MgATP mix. After incubation for 40 minutes at room temperature, the reaction is stopped by the addition of 5 μl of a 3% phosphoric acid solution. […]

The target in the next experiment is NEK2(h) (Homo sapiens, UniProt P51955). Particulars: read-out: percent residual activity of NEK2(h). As to the method: as §1
as §2, with “NEK2” for “Axl”, “0.33 mg/ml myelin basic protein,” for “250 μM KKSRGDYMTMQIG (SEQ ID NO:210),”, “[gamma-33P-ATP]” for “[y-33P-ATP]”

Another experiment concerns the target RIPK2(h) (Homo sapiens, UniProt O43353). To be noted: read-out: percent residual activity of RIPK2(h). As to the method:
as §1
as §2, with “RIPK2” for “Axl”, “0.33 mg/ml myelin basic protein,” for “250 μM KKSRGDYMTMQIG (SEQ ID NO:210),”, “[gamma-33P-ATP]” for “[y-33P-ATP]”

In the next experiment the target is SAPK2a(h) (Homo sapiens, UniProt Q16539). Particulars: read-out: percent residual activity of SAPK2a(h). The method, then: as §1
as §2, with “SAPK2a” for “Axl”, “25” for “8”, “Tris” for “MOPS”, “7.5, 0.02” for “7.0, 0.2”, “EGTA, 0.33 mg/ml myelin basic protein,” for “EDTA, 250 μM KKSRGDYMTMQIG (SEQ ID NO:210),”, “[gamma-33P-ATP]” for “[y-33P-ATP]”

Sequence of NEK2(h) (P51955 whole entry): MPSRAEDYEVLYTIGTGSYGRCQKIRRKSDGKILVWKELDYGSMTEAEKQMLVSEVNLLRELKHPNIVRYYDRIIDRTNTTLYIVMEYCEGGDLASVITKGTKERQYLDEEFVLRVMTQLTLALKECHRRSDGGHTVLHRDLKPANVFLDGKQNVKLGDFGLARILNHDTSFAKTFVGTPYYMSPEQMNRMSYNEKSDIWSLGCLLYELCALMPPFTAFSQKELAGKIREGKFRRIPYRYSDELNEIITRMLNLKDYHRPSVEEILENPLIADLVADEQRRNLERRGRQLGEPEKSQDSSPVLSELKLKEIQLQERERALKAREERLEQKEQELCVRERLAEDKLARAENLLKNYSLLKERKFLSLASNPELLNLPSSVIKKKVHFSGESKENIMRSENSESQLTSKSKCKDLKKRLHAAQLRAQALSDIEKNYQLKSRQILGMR
Sequence of RIPK2(h) (O43353 whole entry): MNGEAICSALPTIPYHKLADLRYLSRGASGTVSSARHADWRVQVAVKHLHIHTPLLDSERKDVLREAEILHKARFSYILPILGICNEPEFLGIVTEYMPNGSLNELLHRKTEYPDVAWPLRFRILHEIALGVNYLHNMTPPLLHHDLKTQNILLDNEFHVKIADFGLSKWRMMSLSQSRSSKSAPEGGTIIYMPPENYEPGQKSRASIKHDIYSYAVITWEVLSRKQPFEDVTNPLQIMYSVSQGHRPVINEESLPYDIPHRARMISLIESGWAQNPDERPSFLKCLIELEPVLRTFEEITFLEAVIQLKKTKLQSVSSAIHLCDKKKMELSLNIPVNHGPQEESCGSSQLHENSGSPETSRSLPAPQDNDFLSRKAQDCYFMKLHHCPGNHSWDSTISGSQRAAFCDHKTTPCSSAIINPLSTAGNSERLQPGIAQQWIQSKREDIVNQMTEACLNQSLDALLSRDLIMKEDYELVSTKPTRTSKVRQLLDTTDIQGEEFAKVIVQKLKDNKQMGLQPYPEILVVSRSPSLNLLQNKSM
Sequence of Axl(h) (P30530 26-894): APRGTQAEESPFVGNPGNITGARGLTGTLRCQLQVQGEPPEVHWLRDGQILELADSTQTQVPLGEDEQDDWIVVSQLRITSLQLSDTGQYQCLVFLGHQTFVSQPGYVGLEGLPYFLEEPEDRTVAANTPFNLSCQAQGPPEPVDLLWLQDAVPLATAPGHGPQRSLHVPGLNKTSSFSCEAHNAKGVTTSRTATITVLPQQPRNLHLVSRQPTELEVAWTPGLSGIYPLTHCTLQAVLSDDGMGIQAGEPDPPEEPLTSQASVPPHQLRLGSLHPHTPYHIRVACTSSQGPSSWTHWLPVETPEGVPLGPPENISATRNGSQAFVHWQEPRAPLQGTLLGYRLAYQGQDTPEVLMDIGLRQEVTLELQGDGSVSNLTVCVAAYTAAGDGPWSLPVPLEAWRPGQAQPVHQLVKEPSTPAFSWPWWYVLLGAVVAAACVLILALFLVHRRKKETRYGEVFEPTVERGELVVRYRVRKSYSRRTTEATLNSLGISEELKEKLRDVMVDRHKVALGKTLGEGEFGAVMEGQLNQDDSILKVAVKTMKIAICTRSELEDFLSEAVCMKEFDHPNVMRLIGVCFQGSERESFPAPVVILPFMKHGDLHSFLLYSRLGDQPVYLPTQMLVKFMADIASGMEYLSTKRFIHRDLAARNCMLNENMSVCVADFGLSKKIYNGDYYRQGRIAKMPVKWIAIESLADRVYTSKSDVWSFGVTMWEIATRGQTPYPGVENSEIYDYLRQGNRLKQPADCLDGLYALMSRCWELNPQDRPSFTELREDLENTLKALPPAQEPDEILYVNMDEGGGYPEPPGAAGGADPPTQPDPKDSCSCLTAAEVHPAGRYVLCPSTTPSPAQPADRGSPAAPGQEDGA
Sequence of FGFR4(h) (P22455 22-802): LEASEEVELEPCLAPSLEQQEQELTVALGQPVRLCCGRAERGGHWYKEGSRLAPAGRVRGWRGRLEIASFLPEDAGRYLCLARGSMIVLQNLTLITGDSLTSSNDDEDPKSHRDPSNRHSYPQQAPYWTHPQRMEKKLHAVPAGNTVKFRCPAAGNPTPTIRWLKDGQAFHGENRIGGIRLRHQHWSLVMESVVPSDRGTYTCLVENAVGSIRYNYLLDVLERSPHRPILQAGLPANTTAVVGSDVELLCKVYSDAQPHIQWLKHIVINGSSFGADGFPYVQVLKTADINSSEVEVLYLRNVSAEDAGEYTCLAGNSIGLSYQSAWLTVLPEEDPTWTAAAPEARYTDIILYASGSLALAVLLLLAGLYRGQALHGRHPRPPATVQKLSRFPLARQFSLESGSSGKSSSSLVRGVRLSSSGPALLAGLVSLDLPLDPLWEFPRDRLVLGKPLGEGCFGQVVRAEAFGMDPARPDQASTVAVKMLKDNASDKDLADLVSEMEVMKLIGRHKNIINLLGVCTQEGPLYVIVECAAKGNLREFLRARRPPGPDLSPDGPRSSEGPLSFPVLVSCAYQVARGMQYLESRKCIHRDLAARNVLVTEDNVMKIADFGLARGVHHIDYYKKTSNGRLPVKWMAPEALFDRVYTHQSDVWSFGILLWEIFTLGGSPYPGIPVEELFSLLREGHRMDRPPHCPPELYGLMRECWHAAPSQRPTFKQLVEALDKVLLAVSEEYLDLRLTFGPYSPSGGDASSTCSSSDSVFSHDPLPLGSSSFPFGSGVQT
Sequence of Fyn(h) (P06241 whole entry): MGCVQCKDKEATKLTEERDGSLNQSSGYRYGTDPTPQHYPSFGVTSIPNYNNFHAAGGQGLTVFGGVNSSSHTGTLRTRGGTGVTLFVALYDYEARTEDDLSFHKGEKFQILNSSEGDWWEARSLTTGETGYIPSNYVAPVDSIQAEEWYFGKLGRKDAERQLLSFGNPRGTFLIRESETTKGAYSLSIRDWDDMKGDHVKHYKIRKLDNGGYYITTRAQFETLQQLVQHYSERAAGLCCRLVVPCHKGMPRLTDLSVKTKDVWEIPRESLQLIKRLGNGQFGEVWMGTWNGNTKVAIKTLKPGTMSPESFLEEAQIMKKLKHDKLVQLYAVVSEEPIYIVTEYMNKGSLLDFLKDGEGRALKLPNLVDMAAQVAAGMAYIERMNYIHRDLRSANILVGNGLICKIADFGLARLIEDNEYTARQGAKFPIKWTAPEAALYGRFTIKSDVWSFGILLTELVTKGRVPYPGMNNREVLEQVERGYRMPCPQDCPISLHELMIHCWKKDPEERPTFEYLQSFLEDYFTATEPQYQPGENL
Sequence of SAPK2a(h) (Q16539 whole entry): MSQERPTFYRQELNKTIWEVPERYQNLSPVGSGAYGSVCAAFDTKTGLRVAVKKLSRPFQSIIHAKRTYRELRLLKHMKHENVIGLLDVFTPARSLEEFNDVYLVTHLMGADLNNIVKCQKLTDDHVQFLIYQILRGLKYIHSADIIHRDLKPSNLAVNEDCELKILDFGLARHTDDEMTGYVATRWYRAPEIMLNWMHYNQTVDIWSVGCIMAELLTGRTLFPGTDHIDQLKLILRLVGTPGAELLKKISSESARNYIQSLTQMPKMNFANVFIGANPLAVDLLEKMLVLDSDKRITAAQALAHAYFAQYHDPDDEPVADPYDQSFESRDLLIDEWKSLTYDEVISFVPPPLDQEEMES

As for `CN1CCCC1CCNC(=O)c1cn2c3c(c(N4CCC(c5cnccn5)C4)c(F)cc3c1=O)Oc1cc3ccccc3cc1-2` (stereo not drawn) [Compound A-1], the remaining activity at 2.5 µM at Axl(h) is 75%; on FGFR4(h), 112%; on Fyn(h), 97%; on NEK2(h), 65%; on RIPK2(h) it was 95%; on SAPK2a(h), 97%.

`CC(=O)N1CCN(c2ccc3c(=O)c(C(=O)NCCN4CCCC4)c4n(C)c5ccccc5n4c3n2)CC1` [Compound B-1]: the remaining activity at 2.5 µM on Axl(h) came out at 102%; on FGFR4(h), 104%; on Fyn(h), 85%; at NEK2(h) it was 106%; at RIPK2(h) it was 99%; at SAPK2a(h) it was 103%.

The record behind these values is patent publication US20070117770A1, “Human ribosomal DNA (rDNA) and ribosomal RNA (rRNA) nucleic acids and uses thereof” (Cylene Pharmaceuticals, Inc., priority 2005, published 2007).
